Test results from patent publication EP1295874A2, “Retroviral protease inhibiting compounds” (Abbott Laboratories, priority 1995, dated 1997).
Like-named read-outs stand apart in the source and are kept apart here.

Experiments:
HIV protease = molecular target: T1, HIV protease (Human immunodeficiency virus type 1 group M subtype B, UniProt P04585); assay: Fluorogenic Assay for Screening Inhibitors of HIV Protease; type: biochemical; details: read-out: Percent Inhibition
T1 construct: HIV protease consists of two identical subunits, each of which has 99 amino acid residues
Protocol: The inhibitory potency of the compound of the invention can be determined by the following method.
The compound of the invention is dissolved in DMSO and a small aliquot further diluted with DMSO to 100 times the final concentration desired for testing. The reaction is carried out in a 6 X 50 mm tube in a total volume of 300 microliters. The final concentrations of the components in the reaction buffer are: 125 mM sodium acetate, 1 M sodium chloride, 5 mM dithiothreitol, 0.5 mg/ml bovine serum albumin, 1.3 µM fluorogenic substrate, 2% (v/v) dimethylsulfoxide, pH 4.5. After addition of inhibitor, the reaction mixture is placed in the fluorometer cell holder and incubated at 30°C for several minutes. The reaction is initiated by the addition of a small aliquot of cold HIV protease. The fluorescence intensity (excitation 340 nm, emmision 490 nM) is recorded as a function of time. The reaction rate is determined for the first six to eight minutes. The observed rate is directly proportional to the moles of substrate cleaved per unit time. The percent inhibition is 100 X (1 - (rate in presence of inhibitor)/(rate in absence of inhibitor)).
Fluorogenic substrate: Dabcyl-Gaba-Ser-Gln-Asn-Tyr-Pro-lle-Val-Gln-EDANS wherein DABCYL = 4-(4-dimethylamino-phenyl)azobenzoic acid, Gaba = γ-aminobutyric acid, and EDANS = 5-((2-aminoethyl)amino)-naphthalene-1-sulfonic acid.

HIVIIIB = assay: Antiviral activity (anti-HIV activity) in MT4 cells, MTT readout; type: cell-based; details: Human immunodeficiency virus 1, MT4, 120 h, read-out: IC50 (µM, 0% plasma)
From the text: (§1) The anti-HIV activity of the compound of the invention can be determined in MT4 cells according to the following procedure. MT4 cells were infected with cell-free supernatant of HIVIIIB (previously frozen with known 50% tissue culture infectious dose (TCID50) at 0.003 multiplicity of infection (MOI) for one hour. After one hour infection, cells were washed twice to remove residual viruses, resuspended in culture media and seeded into 96-well tissue culture plates at 1x10^4 cells per well with various half-log dilutions of compounds. Uninfected cells are included as toxicity and cell controls. RPMI 1640 media (Gibco ) with 10% fetal bovine serum were used as culture media. Various concentrations of human serum (Sigma) 50%, 25% and 12.5% were added to culture media resulting in final concentration of 60%, 35% and 22.5% total serum. All assay plates were incubated in 37 deg. cent. incubator for 5 days. MTT (sigma, 5 mg/ml stock in PBS) was added to all wells at 25 ul per well, incubate for 4 hours. 20%SDS with 0.02 N HCl in water was added at 50 ul per well to lyse cellls. Plates incubated overnight for complete lyses were read on a microtitre plate reader at 570/650 nm wavelengths to determine cell optical density (O.D.). Raw data were analysed for percent inhibition by the following formula: (O.D. test well - O.D. virus control)/(O.D. cell control -O.D. virus control)x100 [formula] The 50% effective concentration (EC50) was calculated by the median effect equation (Chou, 1975,Proc. Int. Cong. Pharmacol. 6th p. 619) to determine the efficacy of compound. The 50% lethal concentration (LC50) was calculated using uninfected MT4 cells.
(§2) Under these conditions, the following data were obtained (n = 4 duplicate determinations: Table 2

[1] = 50% lethal concentration in uninfected MT4 cells (MTT); type: cell-based; details: human, read-out: LC50
From the text: as §1, §2

[2] = Inhibitor Concentration 0.5 nanomolar

SMILES: Cc1cccc(C)c1OCC(=O)N[C@@H](Cc1ccccc1)[C@@H](O)C[C@H](Cc1ccccc1)NC(=O)[C@H](C(C)C)N1CCNC1=O [Example 1P, (2S, 3S, 5S)-2-(2,6-dimethylphenoxyacetyl) amino-3-hydroxy-5-[2S-(1-imidazolidin-2-onyl)-3-methyl-butanoyl] amino-1,6-diphenylhexane]
- inhibition at 0.0005 µM (HIV protease): 92.6%
- IC50 (HIVIIIB): 0.01 µM
- CC50 at 120 h [1]: 41300 nM

SMILES: Cc1cccc(C)c1OCC(=O)N[C@@H](Cc1ccccc1)[C@@H](O)C[C@H](Cc1ccccc1)NC(=O)[C@H](C(C)C)N1CCOC1=O [Example 3C, (2S, 3S, 5S)-2-(2,6-Dimethylphenoxyacetyl) amino-3-hydroxy-5-[2S-(3-oxazolidin-2-onyl)-3-methyl-butanoyl] amino-1,6-diphenylhexane]
- inhibition at 0.0005 µM (HIV protease; [2]): 86.9%
- IC50 (HIVIIIB): 0.025 µM
- CC50 at 120 h [1]: 49500 nM

SMILES: CC(C)[C@@H](C(=O)N[C@@H](Cc1ccccc1)C[C@H](O)[C@H](Cc1ccccc1)NC(=O)O[C@H]1CO[C@H]2OCC[C@H]21)N1CCN(C)C1=O [Example 4F, (2S,3S,5S)-2-[(3R, 3aS, 6aR)-Bis-tetrahydrofuranyloxy] amino-3-hydroxy-5-[2S-(3-methyl-1-imidazolidin-2-onyl)-3-methylbutanoyl] amino-1,6-diphenylhexane]
- inhibition at 0.0005 µM (HIV protease; [2]): 49.7%
- IC50 (HIVIIIB): 0.101 µM
- CC50 at 120 h [1]: > 100000 nM

SMILES: CC(C)[C@@H](C(=O)N[C@@H](Cc1ccccc1)C[C@H](O)[C@H](Cc1ccccc1)NC(=O)O[C@H]1CO[C@H]2OCC[C@H]21)N1CCNC1=O [Example 5, (2S,3S,5S)-2-[(3R,3aS,6aR)-Bis-tetrahydrofuranyloxy] amino-3-hydroxy-5-[2S-(1-imidazolidin-2-onyl)-3-methylbutanoyl] amino-1,6-diphenylhexane]
- inhibition at 0.0005 µM (HIV protease; [2]): 80.8%
- IC50 (HIVIIIB): 0.368 µM
- CC50 at 120 h [1]: > 100000 nM

SMILES: CC(C)[C@@H](C(=O)N[C@@H](Cc1ccccc1)C[C@H](O)[C@H](Cc1ccccc1)NC(=O)OCc1cncs1)N1CCNC1=O [Example 6F, (2S,3S,5S)-2-(N-((5-Thiazolyl)methoxycarbonyl)amino)-5-((2S-(1-imidazolidin-2-onyl)-3-methyl-butanoyl)-amino)-3-hydroxy-1,6-diphenylhexane]
- inhibition at 0.0005 µM (HIV protease; [2]): 61.4%
- IC50 (HIVIIIB): 0.193 µM
- CC50 at 120 h [1]: > 100000 nM

SMILES: CC(C)(C)[C@@H](C(=O)N[C@@H](Cc1ccccc1)C[C@H](O)[C@H](Cc1ccccc1)NC(=O)OCc1cncs1)N1CCNC1=O [Example 7B, (2S,3S,5S)-2-(N-((5-Thiazolyl)-methoxycarbonyl)amino)-3-hydroxy-5-(2S-(1-imidazolidin-2-onyl)-3,3-dimethylbutanoyl)amino-1,6-diphenylhexane]
- inhibition at 0.0005 µM (HIV protease; [2]): 67.1%
- IC50 (HIVIIIB): 0.204 µM
- CC50 at 120 h [1]: > 100000 nM

SMILES: Cc1cccc(C)c1OCC(=O)N[C@@H](Cc1ccccc1)[C@@H](O)C[C@H](Cc1ccccc1)NC(=O)[C@@H](N1CCNC1=O)C(C)(C)C [Example 8]
- inhibition at 0.0005 µM (HIV protease; [2]): 55.6%
- IC50 (HIVIIIB): 0.019 µM
- CC50 at 120 h [1]: 17800 nM

SMILES: Cc1cccc(C)c1OCC(=O)N[C@@H](Cc1ccccc1)[C@@H](O)C[C@H](Cc1ccccc1)NC(=O)[C@H](C(C)C)N1CCNC1=S [Example 9B, (2S,3S,5S)-2-(2,6-Dimethylphenoxyacetyl)amino-3-hydroxy-5-(2S-(1-imidazolidin-2-thionyl)-3-methylbutanoyl)amino-1,6-diphenylhexane]
- inhibition at 0.0005 µM (HIV protease; [2]): 62.6%
- IC50 (HIVIIIB): 0.272 µM
- CC50 at 120 h [1]: 19300 nM

SMILES: Cc1cc(N)cc(C)c1OCC(=O)N[C@@H](Cc1ccccc1)[C@@H](O)C[C@H](Cc1ccccc1)NC(=O)[C@H](C(C)C)N1CCNC1=O [Example 10F, (2S,3S,5S)-2-(4-Amino-2,6-dimethylphenoxyacetyl) amino-3-hydroxy-5-(2S-(1-imidazolidin-2-onyl)-3-methyl-butanoyl) amino-1,6-diphenylhexane]
- inhibition at 0.0005 µM (HIV protease; [2]): 81%
- IC50 (HIVIIIB): 0.047 µM
- CC50 at 120 h [1]: 92000 nM

SMILES: Cc1cc(C)c(OCC(=O)N[C@@H](Cc2ccccc2)[C@@H](O)C[C@H](Cc2ccccc2)NC(=O)[C@H](C(C)C)N2CCNC2=O)c(C)c1 [Example 11B, (2S,3S,5S)-2-(2,4,6-Trimethylphenoxyacetyl) amino-3-hydroxy-5-(2S-(1-imidazolidin-2-onyl)-3-methylbutanoyl) amino-1,6-diphenylhexane]
- inhibition at 0.0005 µM (HIV protease; [2]): 91.1%
- IC50 (HIVIIIB): 0.19 µM
- CC50 at 120 h [1]: 18200 nM

SMILES: Cc1cc(F)cc(C)c1OCC(=O)N[C@@H](Cc1ccccc1)[C@@H](O)C[C@H](Cc1ccccc1)NC(=O)[C@H](C(C)C)N1CCNC1=O [Example 12B, (2S,3S,5S)-2-(4-Fluoro-2,6-dimethylphenoxyacetyl) amino-3-hydroxy-5-(2S-(1-imidazolidin-2-onyl)-3-methyl-butanoyl) amino-1,6-diphenylhexane]
- inhibition at 0.0005 µM (HIV protease; [2]): 76.8%
- IC50 (HIVIIIB): 0.093 µM
- CC50 at 120 h [1]: 19100 nM

SMILES: Cc1ncnc(C)c1OCC(=O)N[C@@H](Cc1ccccc1)[C@@H](O)C[C@H](Cc1ccccc1)NC(=O)[C@H](C(C)C)N1CCNC1=O [Example 13B, (2S,3S,5S)-2-(4,6-Dimethylpyrimidin-5-oxy-acetyl) amino-3-hydroxy-5-(2S-(1-imidazolidin-2-onyl)-3-methyl-butanoyl) amino-1,6-diphenylhexane]
- inhibition at 0.001 µM (HIV protease; Inhibitor Concentration 1.0 nanomolar): 56.2%

SMILES: Cc1ccnc(C)c1OCC(=O)N[C@@H](Cc1ccccc1)[C@@H](O)C[C@H](Cc1ccccc1)NC(=O)[C@@H](N1CCNC1=O)C(C)(C)C [Example 14D, (2S,3S,5S)-2-(2,4-Dimethyl-pyridin-3-oxy-acetyl) amino-3-hydroxy-5-(2S-(1-imidazolidin-2-onyl)-3,3-dimethylbutanoyl) amino-1,6-diphenylhexane]
- inhibition at 0.0005 µM (HIV protease; [2]): 52.7%
- IC50 (HIVIIIB): 0.053 µM
- CC50 at 120 h [1]: > 100000 nM

SMILES: Cc1ccnc(C)c1OCC(=O)N[C@@H](Cc1ccccc1)[C@@H](O)C[C@H](Cc1ccccc1)NC(=O)[C@H](C(C)C)N1CCNC1=O [Example 15, (2S,3S,5S)-2-(2,4-Dimethyl-pyridin-3-oxy-acetyl) amino-3-hydroxy-5-(2S-(1-imidazolidin-2-onyl)-3-methyl-butanoyl) amino-1,6-diphenylhexane]
- inhibition at 0.0005 µM (HIV protease; [2]): 48%
- IC50 (HIVIIIB): 0.119 µM
- CC50 at 120 h [1]: > 100000 nM

SMILES: Cc1cccc(C)c1OCC(=O)N[C@@H](Cc1ccccc1)[C@@H](O)C[C@H](Cc1ccccc1)NC(=O)[C@H](C(C)C)N1CCCC1=O [Example 17C, (2S,3S,5S)-2-(2,6-Dimethylphenoxyacetyl) amino-3-hydroxy-5-(2S-(1-pyrrolidin-2-onyl)-3-methyl-butanoyl) amino-1,6-diphenylhexane]
- inhibition at 0.0005 µM (HIV protease; [2]): 87.2%
- IC50 (HIVIIIB): 0.051 µM
- CC50 at 120 h [1]: 19000 nM

SMILES: Cc1cccc(C)c1CCC(=O)N[C@@H](Cc1ccccc1)[C@@H](O)C[C@H](Cc1ccccc1)NC(=O)[C@H](C(C)C)N1CCCNC1=O [Example 20D, (2S,3S,5S)-2-(3-(2,6-Dimethylphenyl)propanoyl) amino-3-hydroxy-5-(2S-(1-tetrahydropyrimidin-2-onyl)-3-methyl-butanoyl) amino-1,6-diphenylhexane]
- IC50 (HIVIIIB): 0.283 µM
- CC50 at 120 h [1]: 24100 nM

SMILES: CC(C)[C@@H](C(=O)N[C@@H](Cc1ccccc1)C[C@H](O)[C@H](Cc1ccccc1)NC(=O)O[C@@H]1CCS(=O)(=O)[C@@H]1C(C)C)N1CCCNC1=O [Example 22E, (2S,3S,5S)-2-(cis(±)-1,1-dioxo-2-isopropyl-3-tetrahydrothiophenoxy)amino-3-hydroxy-5-(2S-(1-tetrahydropyrimid-2-onyl)-3-methylbutanoyl)amino-1,6-diphenylhexane]
- inhibition at 0.0005 µM (HIV protease; [2]): 71.8%

SMILES: Cc1cccc(C)c1OCC(=O)N[C@@H](Cc1ccccc1)[C@@H](O)C[C@H](Cc1ccccc1)NC(=O)[C@H](C(C)C)n1ccc(=O)[nH]c1=O [Example 23C, (2S,3S,5S)-2-(2,6-Dimethylphenoxyacetyl) amino-3-hydroxy-5-(2S-(1-dihydropyrimid-2,4-dionyl)-3-methyl-butanoyl) amino-1,6-diphenylhexane]
- inhibition at 0.0005 µM (HIV protease; [2]): 86%
